PMC10810011 (Expert opinion on drug delivery, 2023)
Where a name gives a salt, the structure may show the parent alone. Values belong to the compound of their own block, whether it stands above or below them.

Tests used:
5-HT1B = 5-HT1B (Homo sapiens, UniProt P28222); experiment: InVEST radioligand filter binding, 5-HT1B
5-HT3 = biological target: T1, 5-HT3 (Homo sapiens, UniProt P46098); experiment: InVEST radioligand filter binding, ion channel 5-HT3; conditions: read-out: IC50 (M) of reference compound, tested in parallel
T1 sequence (P46098 24-478): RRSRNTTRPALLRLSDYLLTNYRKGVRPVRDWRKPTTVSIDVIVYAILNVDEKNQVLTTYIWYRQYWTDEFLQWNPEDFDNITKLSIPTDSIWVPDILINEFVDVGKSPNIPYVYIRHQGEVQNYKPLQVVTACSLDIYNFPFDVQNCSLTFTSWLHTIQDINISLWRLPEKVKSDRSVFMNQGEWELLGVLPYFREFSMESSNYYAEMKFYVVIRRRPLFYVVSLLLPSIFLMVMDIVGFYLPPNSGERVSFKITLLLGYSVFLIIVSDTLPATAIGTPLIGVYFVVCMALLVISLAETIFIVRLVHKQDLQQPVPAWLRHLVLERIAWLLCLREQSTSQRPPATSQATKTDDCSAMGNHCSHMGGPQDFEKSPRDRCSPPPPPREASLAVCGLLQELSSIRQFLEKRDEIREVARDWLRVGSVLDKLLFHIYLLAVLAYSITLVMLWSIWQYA

AHR-inhibition = biological target: T2, AHR-inhibition (Homo sapiens, UniProt P35869); experiment: InVEST fluorescence polarization binding/cell-based activity, AHR-inhibition; conditions: read-out: IC50 (M) of reference compound, + 10 nM FICZ, tested in parallel
T2 sequence (P35869 11-848): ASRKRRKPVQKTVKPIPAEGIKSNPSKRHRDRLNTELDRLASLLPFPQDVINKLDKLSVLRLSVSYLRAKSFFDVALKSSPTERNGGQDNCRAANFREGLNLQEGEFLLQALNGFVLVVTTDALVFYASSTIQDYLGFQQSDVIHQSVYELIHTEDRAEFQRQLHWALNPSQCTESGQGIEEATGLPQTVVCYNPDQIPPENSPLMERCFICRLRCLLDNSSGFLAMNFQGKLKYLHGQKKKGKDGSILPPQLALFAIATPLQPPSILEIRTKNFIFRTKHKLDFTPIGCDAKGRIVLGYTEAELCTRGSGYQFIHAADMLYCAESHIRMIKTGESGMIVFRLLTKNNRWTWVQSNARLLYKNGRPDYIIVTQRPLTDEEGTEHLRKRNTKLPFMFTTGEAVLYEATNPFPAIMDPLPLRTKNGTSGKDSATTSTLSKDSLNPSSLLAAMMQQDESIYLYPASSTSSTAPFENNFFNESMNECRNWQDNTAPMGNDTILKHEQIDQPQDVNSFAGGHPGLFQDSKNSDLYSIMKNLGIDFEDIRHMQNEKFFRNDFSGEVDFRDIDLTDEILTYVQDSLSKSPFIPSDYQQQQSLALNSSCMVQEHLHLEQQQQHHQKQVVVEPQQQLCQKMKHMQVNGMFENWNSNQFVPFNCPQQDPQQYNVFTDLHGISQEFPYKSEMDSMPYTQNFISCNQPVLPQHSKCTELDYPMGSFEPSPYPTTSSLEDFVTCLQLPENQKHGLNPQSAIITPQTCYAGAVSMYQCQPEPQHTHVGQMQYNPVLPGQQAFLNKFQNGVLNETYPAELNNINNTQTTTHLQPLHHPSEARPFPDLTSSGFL

AHR-activation = biological target: T3, AHR-activation (Homo sapiens, UniProt P35869)
T3 sequence (P35869 11-848): T2 sequence (P35869 11-848)

Thrombin alpha = Thrombin alpha (Homo sapiens, UniProt P00734); experiment: InVEST enzymatic activity, Thrombin alpha; type: biochemical; conditions: read-out: IC50 (M) of reference compound, tested in parallel
alpha2A adrenergic = biological target: T4, alpha2A adrenergic (Homo sapiens, UniProt P08913); experiment: InVEST radioligand filter binding, alpha2A adrenergic; conditions: read-out: IC50 (M) of reference compound, tested in parallel
T4 sequence (P08913 1-465): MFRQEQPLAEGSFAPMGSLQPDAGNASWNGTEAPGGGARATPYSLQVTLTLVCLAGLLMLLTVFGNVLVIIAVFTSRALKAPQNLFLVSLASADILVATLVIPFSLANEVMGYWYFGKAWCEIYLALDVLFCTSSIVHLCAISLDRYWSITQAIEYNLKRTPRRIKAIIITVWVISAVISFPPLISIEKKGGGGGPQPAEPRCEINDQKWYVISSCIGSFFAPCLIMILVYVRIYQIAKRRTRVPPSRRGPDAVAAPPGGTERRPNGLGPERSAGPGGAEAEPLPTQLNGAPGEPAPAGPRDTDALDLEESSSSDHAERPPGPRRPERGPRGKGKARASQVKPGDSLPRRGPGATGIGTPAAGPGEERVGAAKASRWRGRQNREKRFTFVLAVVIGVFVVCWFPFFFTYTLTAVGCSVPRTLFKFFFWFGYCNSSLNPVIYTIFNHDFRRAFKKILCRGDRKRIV

PDE4A = PDE4A (Homo sapiens, UniProt P27815); experiment: InVEST enzymatic activity, PDE4A; type: biochemical; conditions: read-out: IC50 (M) of reference compound, tested in parallel
Sequence of PDE4A (P27815 whole entry): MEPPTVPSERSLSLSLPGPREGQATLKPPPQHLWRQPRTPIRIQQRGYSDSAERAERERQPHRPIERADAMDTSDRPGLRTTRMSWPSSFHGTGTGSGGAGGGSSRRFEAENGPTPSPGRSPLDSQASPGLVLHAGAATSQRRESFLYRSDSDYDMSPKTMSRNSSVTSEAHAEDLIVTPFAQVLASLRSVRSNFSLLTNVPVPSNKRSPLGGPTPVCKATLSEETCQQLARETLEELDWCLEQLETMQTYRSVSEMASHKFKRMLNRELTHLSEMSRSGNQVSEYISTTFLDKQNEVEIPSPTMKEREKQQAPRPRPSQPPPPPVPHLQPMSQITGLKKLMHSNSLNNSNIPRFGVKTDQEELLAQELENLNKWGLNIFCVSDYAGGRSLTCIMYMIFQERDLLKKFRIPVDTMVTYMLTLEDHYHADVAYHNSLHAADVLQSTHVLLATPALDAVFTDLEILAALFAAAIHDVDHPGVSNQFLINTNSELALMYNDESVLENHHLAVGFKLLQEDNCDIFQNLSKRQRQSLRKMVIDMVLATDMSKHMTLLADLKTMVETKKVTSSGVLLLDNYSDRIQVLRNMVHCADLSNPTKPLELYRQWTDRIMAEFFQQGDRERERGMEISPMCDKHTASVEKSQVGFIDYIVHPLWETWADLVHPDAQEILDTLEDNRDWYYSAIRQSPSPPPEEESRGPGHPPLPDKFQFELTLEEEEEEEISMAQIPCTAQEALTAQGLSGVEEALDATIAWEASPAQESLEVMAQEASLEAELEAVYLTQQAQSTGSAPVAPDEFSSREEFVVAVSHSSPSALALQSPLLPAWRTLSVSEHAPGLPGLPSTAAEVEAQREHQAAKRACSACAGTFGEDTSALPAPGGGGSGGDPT

PDE3A = PDE3A (Homo sapiens, UniProt Q14432); experiment: InVEST enzymatic activity, PDE3A; type: biochemical; conditions: read-out: IC50 (M) of reference compound, tested in parallel
Sequence of PDE3A (Q14432 whole entry): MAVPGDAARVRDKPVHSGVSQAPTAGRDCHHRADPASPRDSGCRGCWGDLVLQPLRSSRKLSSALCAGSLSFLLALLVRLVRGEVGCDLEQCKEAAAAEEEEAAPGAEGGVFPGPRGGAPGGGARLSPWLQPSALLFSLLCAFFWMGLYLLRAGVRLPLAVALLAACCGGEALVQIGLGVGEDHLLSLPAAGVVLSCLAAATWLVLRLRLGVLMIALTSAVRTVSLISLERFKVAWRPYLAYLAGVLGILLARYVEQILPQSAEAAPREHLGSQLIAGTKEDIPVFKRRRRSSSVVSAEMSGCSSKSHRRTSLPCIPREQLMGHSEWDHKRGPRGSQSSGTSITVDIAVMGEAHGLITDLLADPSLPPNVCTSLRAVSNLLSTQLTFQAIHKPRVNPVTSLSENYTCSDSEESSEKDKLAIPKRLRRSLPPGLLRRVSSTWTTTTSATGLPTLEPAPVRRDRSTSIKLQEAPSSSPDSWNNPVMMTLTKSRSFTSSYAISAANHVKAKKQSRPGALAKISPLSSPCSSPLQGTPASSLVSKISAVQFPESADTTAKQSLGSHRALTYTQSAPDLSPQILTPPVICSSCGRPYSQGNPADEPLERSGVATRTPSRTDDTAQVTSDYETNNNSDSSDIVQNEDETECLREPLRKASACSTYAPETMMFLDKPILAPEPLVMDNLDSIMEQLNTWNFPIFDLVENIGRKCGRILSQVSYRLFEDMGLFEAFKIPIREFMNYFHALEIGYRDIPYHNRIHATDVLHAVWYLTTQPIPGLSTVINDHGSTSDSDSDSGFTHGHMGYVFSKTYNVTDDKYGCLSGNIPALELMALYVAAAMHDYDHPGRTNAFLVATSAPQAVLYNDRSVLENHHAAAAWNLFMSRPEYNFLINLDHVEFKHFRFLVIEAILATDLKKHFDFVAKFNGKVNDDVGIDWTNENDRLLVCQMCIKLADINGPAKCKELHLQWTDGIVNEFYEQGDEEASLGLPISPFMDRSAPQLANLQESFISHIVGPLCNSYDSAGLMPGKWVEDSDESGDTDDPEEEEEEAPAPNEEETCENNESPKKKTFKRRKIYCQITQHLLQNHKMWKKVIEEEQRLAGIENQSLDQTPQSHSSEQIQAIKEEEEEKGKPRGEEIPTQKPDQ

Muscarinic M2 = biological target: T5, Muscarinic M2 (Homo sapiens, UniProt P08172); experiment: InVEST radioligand filter binding, Muscarinic M2; conditions: read-out: IC50 (M) of reference compound, tested in parallel
T5 sequence (P08172 1-466): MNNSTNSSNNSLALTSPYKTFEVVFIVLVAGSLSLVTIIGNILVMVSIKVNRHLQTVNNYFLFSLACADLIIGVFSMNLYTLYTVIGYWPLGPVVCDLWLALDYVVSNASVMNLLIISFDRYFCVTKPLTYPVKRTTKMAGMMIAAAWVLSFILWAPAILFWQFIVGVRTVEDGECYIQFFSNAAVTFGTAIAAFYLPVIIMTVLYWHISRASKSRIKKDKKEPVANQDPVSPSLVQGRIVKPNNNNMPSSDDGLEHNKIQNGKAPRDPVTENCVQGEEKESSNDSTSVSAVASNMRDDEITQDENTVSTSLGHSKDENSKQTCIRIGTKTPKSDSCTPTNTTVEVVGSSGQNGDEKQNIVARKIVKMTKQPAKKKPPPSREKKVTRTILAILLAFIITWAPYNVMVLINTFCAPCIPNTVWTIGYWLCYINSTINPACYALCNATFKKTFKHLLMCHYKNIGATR

CCK = biological target: T6, CCK (Homo sapiens, UniProt P32238); experiment: InVEST radioligand filter binding, CCK
T6 sequence (P32238 1-428): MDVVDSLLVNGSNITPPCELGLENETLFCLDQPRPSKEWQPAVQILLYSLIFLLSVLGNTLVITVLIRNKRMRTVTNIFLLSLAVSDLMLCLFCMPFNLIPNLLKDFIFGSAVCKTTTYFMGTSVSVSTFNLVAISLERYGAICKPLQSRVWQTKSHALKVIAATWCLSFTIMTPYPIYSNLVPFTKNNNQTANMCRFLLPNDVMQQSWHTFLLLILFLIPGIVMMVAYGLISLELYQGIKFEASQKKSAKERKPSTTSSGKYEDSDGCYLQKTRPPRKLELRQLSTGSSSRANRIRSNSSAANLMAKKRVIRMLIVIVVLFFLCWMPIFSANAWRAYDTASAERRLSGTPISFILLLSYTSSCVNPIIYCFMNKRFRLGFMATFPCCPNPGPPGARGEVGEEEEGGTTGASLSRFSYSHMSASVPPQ

Sequence of 5-HT1B (P28222 whole entry): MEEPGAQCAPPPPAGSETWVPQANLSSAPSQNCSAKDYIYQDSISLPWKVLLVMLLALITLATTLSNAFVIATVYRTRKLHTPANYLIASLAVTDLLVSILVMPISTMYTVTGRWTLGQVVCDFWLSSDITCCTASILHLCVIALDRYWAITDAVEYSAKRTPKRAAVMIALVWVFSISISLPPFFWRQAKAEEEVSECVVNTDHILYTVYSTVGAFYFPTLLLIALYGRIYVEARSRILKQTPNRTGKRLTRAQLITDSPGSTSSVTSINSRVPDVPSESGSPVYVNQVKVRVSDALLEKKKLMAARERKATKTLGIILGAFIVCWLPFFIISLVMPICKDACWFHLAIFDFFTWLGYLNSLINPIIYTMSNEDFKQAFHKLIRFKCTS

IC50 (5-HT1B): 4.85 nM
Compound: COc1ccc(NC(=O)c2ccc(-c3ccncc3)c(C)c2)cc1N1CCN(C)CC1 [GR125743, reference compound]

Compound: Cc1[nH]cnc1CCC(=O)c1cn(C)c2ccccc12 [GR 65630, reference compound]
IC50 (5-HT3): 1.09e-09 M

IC50 (AHR-inhibition): 2.9e-07 M
Compound: GNF-351 [reference compound]

IC50 (AHR-activation): 10.5 nM
Compound: O=Cc1c2[nH]c3ccccc3c2cc2[nH]c3ccccc3c12 [FICZ]

Compound: CCOC(=O)c1ccc(OC(=O)CCCCCN=C(N)N)cc1 [gabexate mesylate, reference compound]
IC50 (Thrombin alpha): 2.26e-06 M

IC50 (alpha2A adrenergic): 1.15e-08 M
Compound: COC1(C2=NCCN2)COc2ccccc2O1 (stereo not shown) [RX 821002, reference compound]

IC50 (PDE4A): 3e-05 M
IC50 (PDE3A): 2.21e-05 M
Compound: CC(C)Cn1c(=O)n(C)c(=O)c2[nH]cnc21 [IBMX, reference compound]

IC50 (Muscarinic M2): 1.79e-08 M
Compound: CCCN(CCC)CC1CCCCN1CCNC(=O)N1c2ccccc2C(=O)Nc2cccnc21 (stereo not shown) [AF-DX 384, reference compound]

IC50 (CCK): 3.78 nM
Compound: CCCCCN(CCCCC)C(=O)C(CCC(=O)O)NC(=O)c1ccc(Cl)c(Cl)c1 (stereo not shown) [lorglumide, reference compound]
